“Also recorded” adds a separate entry of the source.

In assay [1] the target is T1, consensus 10A4, (c) Ortholog (Homo sapiens, UniProt Q9H209, A244S/A267T/E4G/H132R/H139R/I140R/I51T/K296S/K303R/L305V/Q237K/Q264R/S141A/S155P/S269P/S279Y/S293L/S312P/T22S/V195L).
T1 construct: expressed in transfected cells; host or cells: HEK293
The assay is described as follows: Luciferase assay (odorant response). Format: cell-based. As to the method: (§1) For luciferase assay, a reaction solution was prepared according to composition shown in Table 4, left standing for 20 minutes in a clean bench, and then added to each well of a 96-well plate (Becton, Dickinson and Company). Subsequently, 100 μL of HEK293 cells suspended in DMEM (Nacalai Tesque, Inc.) was inoculated at 2×10^5 cells/cm^2 to each well, and cultured for 24 hours in an incubator kept at 37° C. and 5% CO2. Cells expressing no olfactory receptor (Mock) were provided as a control.
(§2) The medium was removed from the cultures prepared in 2), and 75 μL of a test substance solution with a predetermined concentration prepared with a fresh medium was added thereto. The cells were cultured for 4 hours in a CO2 incubator and the luciferase gene was sufficiently expresses in the cells. Luciferase activity was measured using Dual-Glo™ luciferase assay system (Promega Corp.) in accordance with the operation manual of the product. A luminescence value derived from firefly luciferase induced by test substance stimulation in each well of the 96-well plate was divided by a luminescence value derived from Renilla luciferase to calculate a signal, which was then used in analysis. The signal under each transfection condition was normalized with the signal under a stimulation-free condition defined as 0% and the signal by stimulation with 30 μM forskolin defined as 100%, and used as a response (%) in analysis.

For assay [2], the target named is T2, consensus 10A2, (c) Ortholog (Homo sapiens, UniProt Q9H208, A297G/C30S/G257S/H207R/I240V/M268V/N222H/T20I/V292F).
T2 construct: expressed in transfected cells; host or cells: HEK293
The assay is described as follows: Luciferase assay (odorant response). Format: cell-based. The procedure:
as §1, §2

Assay [3] has as its target T3, consensus 10A4 R262Q variant (Homo sapiens, UniProt Q9H209, A244S/A267T/E4G/H132R/H139R/I140R/I51T/K296S/K303R/L305V/Q237K/Q264R/R262Q/S141A/S155P/S269P/S279Y/S293L/S312P/T22S/V195L).
T3 construct: expressed in transfected cells; host or cells: HEK293
The assay is described as follows: Luciferase assay (odorant response). It is filed as cell-based. As to the method:
as §1, §2
(§3) Whether responsiveness coinciding with difference among individuals in sensory evaluation would be obtained was tested by applying the consensus design (c) to each human olfactory receptor newly identified in FIGS. 5 and 6, and then introducing an amino acid sequence reported to have difference among individuals (FIG. 7).

Assay [4] has as its target T4, consensus OR10A2 variant of H43R, H207R, and K258T (Homo sapiens, UniProt Q9H208, A297G/C30S/G257S/H207R/H43R/I240V/K258T/M268V/N222H/T20I/V292F).
T4 construct: expressed in transfected cells; host or cells: HEK293
The assay is described as follows: Luciferase assay (odorant response). It is filed as cell-based. As to the method:
as §1, §2, §3

The target of assay [5] is T5, OR2A25 (original human receptor) (Homo sapiens, UniProt A4D2G3).
T5 construct: expressed in transfected cells; host or cells: HEK293
As to the kind of experiment: Luciferase assay (odorant response). It is filed as cell-based. As to the method: as §1, §2

The target in assay [6] is T6, consensus olfactory receptor 6B2 with R122C and C179R mutations (Homo sapiens, UniProt Q6IFH4, C161Y/C179R/C234R/E83D/G146A/H133Q/I215V/I48T/L135I/L142V/L17F/L255M/L256I/M157V/P138T/Q268R/Q89R/R122C/S64G/T78I/V136M/V15L/V166A/V250I/V281L/W219G).
T6 construct: expressed in transfected cells; host or cells: HEK293
The assay is described as follows: Luciferase assay (odorant response). It is filed as cell-based. The conditions noted are these: versus consensus 6B2. As to the method:
as §1, §2, §3

Assay [7] deals with T7, consensus olfactory receptor 5C1 with N5K mutation (Homo sapiens, UniProt Q8NGR4, A10R/A30T/A50V/C35F/G245C/H231R/H313C/I178V/I206V/K177E/L166F/L6F/M255L/M47V/M55V/N23D/N5K/Q142R/Q307R/R131G/R8W/S194N/S238R/S288A/T114A/T219A/T34I/V17I/V235A).
T7 construct: expressed in transfected cells; host or cells: HEK293
As to the kind of experiment: Luciferase assay (odorant response). Format: cell-based. The note with it: versus consensus 5C1. The procedure: as §1, §2, §3

In the next assay the target is OR4E2 (Homo sapiens, UniProt Q8NGC2). The note with it: in the presence of a metal ion (JP-A-2020-513564); cited from earlier work.
For a further assay, the system named is 6Y1. The note with it: as disclosed in Non Patent Literature 2; cited from earlier work.

T1 sequence (Q9H209 1-315 with the stated changes): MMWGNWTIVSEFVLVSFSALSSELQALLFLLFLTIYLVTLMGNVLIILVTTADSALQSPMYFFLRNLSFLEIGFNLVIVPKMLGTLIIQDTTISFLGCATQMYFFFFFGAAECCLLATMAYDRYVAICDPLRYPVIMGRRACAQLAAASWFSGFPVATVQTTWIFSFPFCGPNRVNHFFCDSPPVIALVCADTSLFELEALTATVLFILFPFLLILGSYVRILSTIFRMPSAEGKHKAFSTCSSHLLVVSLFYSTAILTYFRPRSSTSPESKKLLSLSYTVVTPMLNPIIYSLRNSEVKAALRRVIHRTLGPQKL
T2 sequence (Q9H208 with tags, fused parts or gaps T20I/C30S/H207R/N222H/I240V/G257S/M268V/V292F/A297G): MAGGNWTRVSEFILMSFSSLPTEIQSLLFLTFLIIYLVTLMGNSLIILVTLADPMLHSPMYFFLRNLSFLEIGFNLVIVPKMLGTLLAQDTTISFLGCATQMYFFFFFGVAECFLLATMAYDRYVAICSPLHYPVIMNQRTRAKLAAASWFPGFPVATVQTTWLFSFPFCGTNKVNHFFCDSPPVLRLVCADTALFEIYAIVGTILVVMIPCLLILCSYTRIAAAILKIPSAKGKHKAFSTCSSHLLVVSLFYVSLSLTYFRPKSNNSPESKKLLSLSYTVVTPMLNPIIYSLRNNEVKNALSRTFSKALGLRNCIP
T4 sequence (Q9H208 with tags, fused parts or gaps with the stated changes): as the sequence (Q9H208 with tags, fused parts or gaps T20I/C30S/H207R/N222H/I240V/G257S/M268V/V292F/A297G) above, with H57R, K272T counted along it
Chain of OR4E2 (Q8NGC2 whole entry): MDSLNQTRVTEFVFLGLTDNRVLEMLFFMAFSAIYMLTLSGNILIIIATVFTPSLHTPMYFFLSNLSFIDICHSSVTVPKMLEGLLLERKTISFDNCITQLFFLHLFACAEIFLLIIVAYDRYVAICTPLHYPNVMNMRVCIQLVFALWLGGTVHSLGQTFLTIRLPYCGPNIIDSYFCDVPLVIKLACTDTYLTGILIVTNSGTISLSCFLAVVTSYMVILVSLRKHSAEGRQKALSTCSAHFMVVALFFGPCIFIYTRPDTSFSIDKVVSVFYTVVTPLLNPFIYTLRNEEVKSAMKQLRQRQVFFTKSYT
T6 sequence (Q6IFH4 with tags, fused parts or gaps with the stated changes): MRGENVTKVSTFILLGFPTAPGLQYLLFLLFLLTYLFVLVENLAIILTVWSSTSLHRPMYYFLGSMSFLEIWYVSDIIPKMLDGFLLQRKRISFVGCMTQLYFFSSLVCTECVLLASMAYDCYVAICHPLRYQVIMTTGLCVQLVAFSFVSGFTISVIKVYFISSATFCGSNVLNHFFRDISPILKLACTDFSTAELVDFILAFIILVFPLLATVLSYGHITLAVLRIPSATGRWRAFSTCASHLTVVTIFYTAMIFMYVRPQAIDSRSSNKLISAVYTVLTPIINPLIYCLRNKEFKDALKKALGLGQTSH
T7 sequence (Q8NGR4 1-320 with the stated changes): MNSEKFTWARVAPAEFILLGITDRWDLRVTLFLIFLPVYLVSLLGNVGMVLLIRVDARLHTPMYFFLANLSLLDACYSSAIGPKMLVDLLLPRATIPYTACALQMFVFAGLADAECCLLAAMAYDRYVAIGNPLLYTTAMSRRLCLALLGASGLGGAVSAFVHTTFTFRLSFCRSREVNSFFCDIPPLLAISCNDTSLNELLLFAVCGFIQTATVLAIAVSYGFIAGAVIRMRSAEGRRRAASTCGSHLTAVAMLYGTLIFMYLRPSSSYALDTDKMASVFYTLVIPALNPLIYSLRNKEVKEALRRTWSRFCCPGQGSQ
T5 sequence (A4D2G3 whole entry): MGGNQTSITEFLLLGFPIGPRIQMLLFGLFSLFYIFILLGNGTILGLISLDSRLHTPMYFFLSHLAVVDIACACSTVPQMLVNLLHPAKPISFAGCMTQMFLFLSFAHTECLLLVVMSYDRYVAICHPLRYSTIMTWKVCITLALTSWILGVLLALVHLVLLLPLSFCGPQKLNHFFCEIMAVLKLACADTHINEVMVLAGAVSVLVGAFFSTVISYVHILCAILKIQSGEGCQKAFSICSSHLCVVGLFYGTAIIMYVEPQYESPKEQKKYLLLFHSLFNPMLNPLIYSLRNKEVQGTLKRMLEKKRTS

In the case of `CCCCCCCCC/C=C/C=O` [(E)-2-dodecenal], the “response of consensus 10A4” value in assay [1] is listed as “can recognize; also recorded: lower responsiveness”. In addition, the “response of consensus 10A2” value in [2] was “can recognize”. In assay [3], the “responsiveness of the 10A4 R262Q variant” value is recorded as “no change in responsiveness”. Also, the “responsiveness of the 10A2 variant of H43R, H207R, and K258T” value in [4] is given as “markedly low responsiveness”.

Take `CCCCCCC/C=C/C=O` [(E)-2-decenal]: in [1], the “response of consensus 10A4” value is “can recognize; also recorded: lower responsiveness”. Moreover, the “response of consensus 10A2” value in assay [2] was “can recognize”. The “responsiveness of the 10A4 R262Q variant” value in assay [3] is on record as “no change in responsiveness”. Further, the “responsiveness of the 10A2 variant of H43R, H207R, and K258T” value in [4] is recorded as “markedly low responsiveness”.

As to `CC(C)=CCC/C(C)=C/CO` [geraniol], in assay [5], the “response of 2A25 (ranking of affinity for 2 agonists)” value is “responded to geraniol at a lower concentration in comparison with geranyl formate”.

For `CC(C)C=O` [isobutyraldehyde], the “responsiveness of consensus 6B2 with R122C and C179R” value in assay [6] was “markedly reduced”.

For the compound `CC(C)=CCCC(C)=CC=O` [citral], the “responsiveness of consensus 5C1 with N5K” value in [7] is listed as “markedly reduced”.

For `CC(C)(S)CCO` [3-mercapto-3-methylbutanol], the “response of OR4E2” value on OR4E2 is reported as “responds”.

As for `CC(=O)C(C)=O` [diacetyl], in the assay on 6Y1, the “response of 6Y1” value is listed as “responds”.

The values are drawn from US20240279302A1, “OLFACTORY RECEPTOR EXPRESSING METHOD AND RESPONSE MEASUREMENT METHOD” (Kao Corporation, priority 2021, published 2024).
